From paper PMC5362750, “Discovery of Potent, Selective, and Orally Bioavailable Small-Molecule Modulators of the Mediator Complex-Associated Kinases CDK8 and CDK19” (Journal of Medicinal Chemistry, 2016)

Assays:
BB3 (h) = target: T1, BB3 (h) (Homo sapiens, UniProt P32247); test: CEREP binding assay; conditions: agonist radioligand, read-out: % Inhibition of Control Specific Binding
T1 construct: purchased Millipore (KinaseProfiler) kinase panel

H3 (h) = target: T2, H3 (h) (Homo sapiens, UniProt Q9Y5N1); test: CEREP binding assay; conditions: agonist radioligand, read-out: % Inhibition of Control Specific Binding
T2 construct: purchased Millipore (KinaseProfiler) kinase panel
T2 sequence (Q9Y5N1 whole entry): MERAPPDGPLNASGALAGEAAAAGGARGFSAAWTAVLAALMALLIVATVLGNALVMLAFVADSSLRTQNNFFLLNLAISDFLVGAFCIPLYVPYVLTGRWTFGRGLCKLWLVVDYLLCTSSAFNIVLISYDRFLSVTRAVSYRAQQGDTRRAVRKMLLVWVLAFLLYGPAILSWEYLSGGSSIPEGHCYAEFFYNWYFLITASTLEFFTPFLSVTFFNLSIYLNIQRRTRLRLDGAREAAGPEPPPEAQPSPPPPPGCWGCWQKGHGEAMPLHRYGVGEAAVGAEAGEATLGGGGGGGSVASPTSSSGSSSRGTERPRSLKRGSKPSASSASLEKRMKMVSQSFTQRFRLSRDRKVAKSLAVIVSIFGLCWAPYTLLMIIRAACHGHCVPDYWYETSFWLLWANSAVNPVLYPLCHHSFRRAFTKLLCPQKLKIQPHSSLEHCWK

motilin (h) = motilin (h) (Homo sapiens, UniProt O43193); test: CEREP binding assay; conditions: agonist radioligand, read-out: % Inhibition of Control Specific Binding
Chain of motilin (h) (O43193 whole entry): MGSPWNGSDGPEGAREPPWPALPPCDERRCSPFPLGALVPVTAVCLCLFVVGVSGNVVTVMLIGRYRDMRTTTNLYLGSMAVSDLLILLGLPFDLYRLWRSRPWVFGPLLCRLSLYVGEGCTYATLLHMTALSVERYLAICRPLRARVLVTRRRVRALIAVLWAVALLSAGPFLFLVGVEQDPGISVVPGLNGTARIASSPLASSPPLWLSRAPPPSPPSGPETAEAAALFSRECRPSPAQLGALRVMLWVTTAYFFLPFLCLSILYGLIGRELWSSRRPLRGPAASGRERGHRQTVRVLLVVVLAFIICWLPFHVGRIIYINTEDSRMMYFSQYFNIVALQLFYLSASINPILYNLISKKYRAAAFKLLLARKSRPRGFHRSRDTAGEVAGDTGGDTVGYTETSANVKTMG

PAF (h) = target: T3, PAF (h) (Homo sapiens, UniProt P25105); test: CEREP binding assay; conditions: agonist radioligand, read-out: % Inhibition of Control Specific Binding
T3 construct: purchased Millipore (KinaseProfiler) kinase panel

Ca2+ channel (N) = target: T4, Ca2+ channel (N) (Rattus norvegicus, UniProt Q02294); test: CEREP binding assay; conditions: antagonist radioligand, read-out: % Inhibition of Control Specific Binding
T4 construct: CEREP

ARK5 = target: T5, ARK5 (Homo sapiens, UniProt O60285); test: Kinase panel (Millipore); type: biochemical; conditions: 1 µM, ATP at Km
T5 construct: purchased Millipore (KinaseProfiler) kinase panel

LIMK1 = LIMK1 (Homo sapiens, UniProt P53667); test: Kinase panel (Millipore); type: biochemical; conditions: 1 µM, ATP at Km
ASK1 = ASK1 (Homo sapiens, UniProt Q99683); test: Kinase panel (Millipore); type: biochemical; conditions: 1 µM, ATP at Km
AURKA = AURKA (Homo sapiens, UniProt O14965); test: Kinase panel (Millipore); type: biochemical; conditions: 1 µM, ATP at Km
EPHB2 = target: T6, EPHB2 (Homo sapiens, UniProt P29323); test: Kinase panel (Millipore); type: biochemical; conditions: 1 µM, ATP at Km
T6 construct: purchased Millipore (KinaseProfiler) kinase panel

EPHB3 = target: T7, EPHB3 (Homo sapiens, UniProt P54753); test: Kinase panel (Millipore); type: biochemical; conditions: 1 µM, ATP at Km
T7 construct: purchased Millipore (KinaseProfiler) kinase panel

EPHB4 = target: T8, EPHB4 (Homo sapiens, UniProt P54760); test: Kinase panel (Millipore); type: biochemical; conditions: 1 µM, ATP at Km
T8 construct: purchased Millipore (KinaseProfiler) kinase panel

CAMKIV = CAMKIV (Homo sapiens, UniProt Q16566); test: Kinase panel (Millipore); type: biochemical; conditions: 1 µM, ATP at Km
Chain of CAMKIV (Q16566 whole entry): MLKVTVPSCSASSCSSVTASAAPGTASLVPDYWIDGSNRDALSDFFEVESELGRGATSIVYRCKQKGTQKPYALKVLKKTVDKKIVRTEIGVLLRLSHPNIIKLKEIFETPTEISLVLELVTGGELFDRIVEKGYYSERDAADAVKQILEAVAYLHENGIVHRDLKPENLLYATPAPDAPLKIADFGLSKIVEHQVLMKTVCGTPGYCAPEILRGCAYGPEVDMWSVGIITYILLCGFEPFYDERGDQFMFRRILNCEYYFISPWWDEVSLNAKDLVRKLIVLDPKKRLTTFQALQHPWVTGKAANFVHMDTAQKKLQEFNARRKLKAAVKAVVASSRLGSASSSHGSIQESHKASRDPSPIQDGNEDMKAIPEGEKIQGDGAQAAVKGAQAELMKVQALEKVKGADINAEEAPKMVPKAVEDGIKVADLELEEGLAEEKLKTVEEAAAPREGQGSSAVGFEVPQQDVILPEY

MRCKALPHA = target: T9, MRCKALPHA (Homo sapiens, UniProt Q5VT25); test: Kinase panel (Millipore); type: biochemical; conditions: 1 µM, ATP at Km
T9 construct: purchased Millipore (KinaseProfiler) kinase panel

MSK2 = target: T10, MSK2 (Homo sapiens, UniProt O75676); test: Kinase panel (Millipore); type: biochemical; conditions: 1 µM, ATP at Km
T10 construct: purchased Millipore (KinaseProfiler) kinase panel
T10 sequence (O75676 whole entry): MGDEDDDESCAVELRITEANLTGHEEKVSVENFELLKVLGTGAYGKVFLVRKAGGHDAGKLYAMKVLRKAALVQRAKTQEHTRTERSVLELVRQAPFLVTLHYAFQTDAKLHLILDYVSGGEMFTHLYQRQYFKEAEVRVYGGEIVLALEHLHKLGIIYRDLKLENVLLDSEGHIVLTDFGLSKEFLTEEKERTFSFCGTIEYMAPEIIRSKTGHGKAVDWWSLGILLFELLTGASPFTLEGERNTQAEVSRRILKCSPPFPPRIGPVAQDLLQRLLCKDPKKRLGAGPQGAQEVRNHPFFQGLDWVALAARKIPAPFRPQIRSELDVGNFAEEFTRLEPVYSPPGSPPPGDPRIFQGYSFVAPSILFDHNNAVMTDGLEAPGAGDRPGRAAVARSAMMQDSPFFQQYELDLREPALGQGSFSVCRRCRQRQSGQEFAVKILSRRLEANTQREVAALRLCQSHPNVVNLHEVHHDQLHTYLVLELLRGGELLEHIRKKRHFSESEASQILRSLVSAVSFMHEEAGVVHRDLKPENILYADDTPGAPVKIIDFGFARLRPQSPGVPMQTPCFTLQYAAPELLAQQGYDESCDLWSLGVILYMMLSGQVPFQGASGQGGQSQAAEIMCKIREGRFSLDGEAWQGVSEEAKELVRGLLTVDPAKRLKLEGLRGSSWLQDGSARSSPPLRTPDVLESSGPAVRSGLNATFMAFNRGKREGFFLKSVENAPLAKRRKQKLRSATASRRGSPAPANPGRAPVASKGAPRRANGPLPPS

CK1DELTA = CK1DELTA (Homo sapiens, UniProt P48730); test: Kinase panel (Millipore); type: biochemical; conditions: 1 µM, ATP at Km
HIPK3 = target: T11, HIPK3 (Homo sapiens, UniProt Q9H422); test: Kinase panel (Millipore); type: biochemical; conditions: 1 µM, ATP at Km
T11 construct: purchased Millipore (KinaseProfiler) kinase panel

NEK7 = NEK7 (Homo sapiens, UniProt Q8TDX7); test: Kinase panel (Millipore); type: biochemical; conditions: 1 µM, ATP at Km
Chain of NEK7 (Q8TDX7 whole entry): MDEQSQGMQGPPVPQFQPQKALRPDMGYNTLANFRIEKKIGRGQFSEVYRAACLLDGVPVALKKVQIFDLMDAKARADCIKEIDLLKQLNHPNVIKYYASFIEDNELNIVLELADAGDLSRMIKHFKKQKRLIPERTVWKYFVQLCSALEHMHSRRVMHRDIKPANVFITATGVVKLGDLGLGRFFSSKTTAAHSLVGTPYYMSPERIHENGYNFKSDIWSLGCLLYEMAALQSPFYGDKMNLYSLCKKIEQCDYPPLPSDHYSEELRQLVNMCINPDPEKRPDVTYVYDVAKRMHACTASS

NLK = target: T12, NLK (Homo sapiens, UniProt Q9UBE8); test: Kinase panel (Millipore); type: biochemical; conditions: 1 µM, ATP at Km
T12 construct: purchased Millipore (KinaseProfiler) kinase panel

DYRK2 = DYRK2 (Homo sapiens, UniProt Q92630); test: Kinase panel (Millipore); type: biochemical; conditions: 1 µM, ATP at Km
PAK2 = target: T13, PAK2 (Homo sapiens, UniProt Q13177); test: Kinase panel (Millipore); type: biochemical; conditions: 1 µM, ATP at Km
T13 construct: purchased Millipore (KinaseProfiler) kinase panel

JNK2ALPHA2 = JNK2ALPHA2 (Homo sapiens, UniProt P45984); test: Kinase panel (Millipore); type: biochemical; conditions: 1 µM, ATP at Km
SAPK2B = SAPK2B (Homo sapiens, UniProt Q15759); test: Kinase panel (Millipore); type: biochemical; conditions: 1 µM, ATP at Km
SGK2 = target: T14, SGK2 (Homo sapiens, UniProt Q9HBY8); test: Kinase panel (Millipore); type: biochemical; conditions: 1 µM, ATP at Km
T14 construct: purchased Millipore (KinaseProfiler) kinase panel
T14 sequence (Q9HBY8 whole entry): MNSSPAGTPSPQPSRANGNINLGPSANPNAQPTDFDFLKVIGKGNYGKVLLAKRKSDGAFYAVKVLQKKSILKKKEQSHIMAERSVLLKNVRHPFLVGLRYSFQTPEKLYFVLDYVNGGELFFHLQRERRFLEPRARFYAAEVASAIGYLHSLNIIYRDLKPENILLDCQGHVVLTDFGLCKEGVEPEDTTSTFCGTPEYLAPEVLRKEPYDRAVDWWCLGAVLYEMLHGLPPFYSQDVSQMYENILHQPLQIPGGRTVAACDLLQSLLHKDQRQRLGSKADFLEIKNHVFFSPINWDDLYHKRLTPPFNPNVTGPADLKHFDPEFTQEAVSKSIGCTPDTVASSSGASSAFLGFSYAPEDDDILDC

PKCIOTA = target: T15, PKCIOTA (Homo sapiens, UniProt P41743); test: Kinase panel (Millipore); type: biochemical; conditions: 1 µM, ATP at Km
T15 construct: purchased Millipore (KinaseProfiler) kinase panel

TSSK2 = target: T16, TSSK2 (Homo sapiens, UniProt Q96PF2); test: Kinase panel (Millipore); type: biochemical; conditions: 1 µM, ATP at Km
T16 construct: purchased Millipore (KinaseProfiler) kinase panel

WNK2 = target: T17, WNK2 (Homo sapiens, UniProt Q9Y3S1); test: Kinase panel (Millipore); type: biochemical; conditions: 1 µM, ATP at Km
T17 construct: purchased Millipore (KinaseProfiler) kinase panel
T17 sequence (Q9Y3S1 whole entry): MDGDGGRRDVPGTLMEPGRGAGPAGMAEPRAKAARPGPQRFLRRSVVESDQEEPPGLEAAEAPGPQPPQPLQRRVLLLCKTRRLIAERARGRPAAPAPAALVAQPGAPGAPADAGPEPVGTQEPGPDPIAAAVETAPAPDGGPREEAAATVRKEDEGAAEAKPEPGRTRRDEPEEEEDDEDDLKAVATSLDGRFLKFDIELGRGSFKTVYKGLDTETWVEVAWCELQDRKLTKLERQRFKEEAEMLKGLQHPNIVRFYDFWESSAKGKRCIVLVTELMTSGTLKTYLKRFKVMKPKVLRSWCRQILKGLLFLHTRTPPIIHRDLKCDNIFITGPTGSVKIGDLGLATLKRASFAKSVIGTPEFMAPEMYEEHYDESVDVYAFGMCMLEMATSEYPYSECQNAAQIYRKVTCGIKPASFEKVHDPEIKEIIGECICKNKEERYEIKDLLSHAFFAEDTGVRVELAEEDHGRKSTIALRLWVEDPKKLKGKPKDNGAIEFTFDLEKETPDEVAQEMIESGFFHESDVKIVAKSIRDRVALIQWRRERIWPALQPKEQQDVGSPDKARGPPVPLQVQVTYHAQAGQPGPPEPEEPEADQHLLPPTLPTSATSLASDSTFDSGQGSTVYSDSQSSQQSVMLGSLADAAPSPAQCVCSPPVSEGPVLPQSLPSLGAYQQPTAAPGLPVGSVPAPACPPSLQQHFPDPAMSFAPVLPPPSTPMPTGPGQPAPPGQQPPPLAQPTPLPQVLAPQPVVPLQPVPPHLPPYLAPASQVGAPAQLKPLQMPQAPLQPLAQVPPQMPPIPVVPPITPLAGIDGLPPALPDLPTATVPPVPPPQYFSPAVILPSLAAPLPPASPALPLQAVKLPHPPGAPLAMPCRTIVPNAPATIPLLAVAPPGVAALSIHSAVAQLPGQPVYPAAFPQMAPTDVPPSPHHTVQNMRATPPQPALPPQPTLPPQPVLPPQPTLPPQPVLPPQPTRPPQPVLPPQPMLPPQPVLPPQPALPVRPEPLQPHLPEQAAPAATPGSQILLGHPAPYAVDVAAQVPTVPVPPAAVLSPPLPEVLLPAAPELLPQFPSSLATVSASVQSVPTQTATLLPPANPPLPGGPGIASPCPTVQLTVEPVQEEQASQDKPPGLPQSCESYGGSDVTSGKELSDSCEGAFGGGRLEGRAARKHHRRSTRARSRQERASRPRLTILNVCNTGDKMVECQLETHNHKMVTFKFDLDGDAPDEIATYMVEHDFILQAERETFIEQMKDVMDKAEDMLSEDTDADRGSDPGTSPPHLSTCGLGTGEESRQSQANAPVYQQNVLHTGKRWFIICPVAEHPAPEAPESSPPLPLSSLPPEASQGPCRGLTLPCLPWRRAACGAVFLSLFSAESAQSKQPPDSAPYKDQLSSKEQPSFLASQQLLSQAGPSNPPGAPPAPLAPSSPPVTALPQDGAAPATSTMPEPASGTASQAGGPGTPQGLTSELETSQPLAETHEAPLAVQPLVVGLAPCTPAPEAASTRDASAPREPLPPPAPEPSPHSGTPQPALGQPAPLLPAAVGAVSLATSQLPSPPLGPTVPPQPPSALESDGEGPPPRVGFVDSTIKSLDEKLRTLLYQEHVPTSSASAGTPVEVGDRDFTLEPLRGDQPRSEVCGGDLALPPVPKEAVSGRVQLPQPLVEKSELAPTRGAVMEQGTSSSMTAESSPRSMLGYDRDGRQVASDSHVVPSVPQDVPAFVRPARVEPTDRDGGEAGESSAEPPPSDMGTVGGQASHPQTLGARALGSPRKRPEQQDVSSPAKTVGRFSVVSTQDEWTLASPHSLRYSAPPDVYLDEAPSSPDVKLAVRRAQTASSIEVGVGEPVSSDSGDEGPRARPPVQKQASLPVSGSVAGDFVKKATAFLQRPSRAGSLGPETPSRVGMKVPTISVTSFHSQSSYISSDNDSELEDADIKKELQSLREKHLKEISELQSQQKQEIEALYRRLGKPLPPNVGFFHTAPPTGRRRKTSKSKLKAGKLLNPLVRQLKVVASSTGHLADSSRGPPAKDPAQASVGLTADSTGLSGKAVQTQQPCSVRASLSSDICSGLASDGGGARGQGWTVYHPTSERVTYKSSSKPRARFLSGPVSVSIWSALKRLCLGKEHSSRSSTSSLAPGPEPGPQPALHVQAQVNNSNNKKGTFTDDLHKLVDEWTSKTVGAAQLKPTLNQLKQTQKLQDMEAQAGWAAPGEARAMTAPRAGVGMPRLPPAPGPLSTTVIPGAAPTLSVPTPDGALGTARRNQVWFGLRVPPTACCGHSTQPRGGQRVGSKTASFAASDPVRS

WNK3 = target: T18, WNK3 (Homo sapiens, UniProt Q9BYP7); test: Kinase panel (Millipore); type: biochemical; conditions: 1 µM, ATP at Km
T18 construct: purchased Millipore (KinaseProfiler) kinase panel

ULK3 = target: T19, ULK3 (Homo sapiens, UniProt Q6PHR2); test: Kinase panel (Millipore); type: biochemical; conditions: 1 µM, ATP at Km
T19 construct: purchased Millipore (KinaseProfiler) kinase panel

ZIPK = ZIPK (Homo sapiens, UniProt O43293); test: Kinase panel (Millipore); type: biochemical; conditions: 1 µM, ATP at Km
PTK5 = target: T20, PTK5 (Homo sapiens, UniProt P42685); test: Kinase panel (Millipore); type: biochemical; conditions: 1 µM, ATP at Km
T20 construct: purchased Millipore (KinaseProfiler) kinase panel

ULK2 = target: T21, ULK2 (Homo sapiens, UniProt Q8IYT8); test: Kinase panel (Millipore); type: biochemical; conditions: 1 µM, ATP at Km
T21 construct: purchased Millipore (KinaseProfiler) kinase panel

PLK1 = PLK1 (Homo sapiens, UniProt P53350); test: Kinase panel (Millipore); type: biochemical; conditions: 1 µM, ATP at Km
AMPA = conditions: 10 µM, agonist radioligand
TR (TH) = conditions: 10 µM, agonist radioligand
CHK2(R145W) = CHK2(R145W) (Homo sapiens, UniProt O96017, R145W); conditions: 1 µM, ATP at Km
cMET (M1268T) = cMET (M1268T) (Homo sapiens, UniProt P08581, M1250T); conditions: 1 µM, ATP at Km
cMET (Y1248H) = cMET (Y1248H) (Homo sapiens, UniProt P08581, Y1230H); conditions: 1 µM, ATP at Km
in vivo = conditions: NCr athymic, mouse, po, 30 mg/kg
alpha 2B (h) = alpha 2B (h) (Homo sapiens, UniProt P18089); test: biochemical; conditions: read-out: % Inhibition of Control Specific Binding

Cn1ncc2cc(-c3cnc(N)c(Cl)c3N3CCC4(CCNC4=O)CC3)ccc21 [Compound 109, 8-(2-Amino-3-chloro-5-(1-methyl-1H-indazol-5-yl)pyridin-4-yl)-2,8-diazaspiro[4.5]decan-1-one]
inhibition at 10 µM (BB3 (h)): -11%
inhibition at 10 µM (H3 (h)): 3%
inhibition at 10 µM (motilin (h)): 12%
inhibition at 10 µM (PAF (h)): -4%
inhibition at 10 µM (Ca2+ channel (N)): -12%
% effect (ARK5): 10%
% effect (LIMK1): -13%
% effect (ASK1): 17%
% effect (AURKA): -16%
% effect (EPHB2): -3%
% effect (EPHB3): 5%
% effect (EPHB4): -3%
% effect (CAMKIV): 14%
% effect (MRCKALPHA): -3%
% effect (MSK2): 5%
% effect (CK1DELTA): 18%
% effect (HIPK3): 18%
% effect (NEK7): 15%
% effect (NLK): -5%
% effect (DYRK2): -9%
% effect (PAK2): -10%
% effect (JNK2ALPHA2): -5%
% effect (SAPK2B): -3%
% effect (SGK2): -3%
% effect (PKCIOTA): -5%
% effect (TSSK2): 9%
% effect (WNK2): 27%
% effect (WNK3): 6%
% effect (ULK3): -21%
% effect (ZIPK): 6%
% effect (PTK5): -12%
% effect (ULK2): 12%
% effect (PLK1): -3%
% Inhibition of Control Specific Binding (AMPA): 3%
% Inhibition of Control Specific Binding (TR (TH)): -13%
% effect (CHK2(R145W)): 7%
% effect (cMET (M1268T)): 1%
% effect (cMET (Y1248H)): -5%
concentration at 1 h (in vivo; Free Plasma conc.): 523 nM
concentration at 2 h (in vivo; Free Plasma conc.): 240 nM
concentration at 6 h (in vivo; Free Plasma conc.): 29 nM
concentration at 24 h (in vivo; Free Plasma conc.): 3 nM
concentration at 1 h (in vivo; Free tumor conc.): 171 nM
concentration at 2 h (in vivo; Free tumor conc.): 120 nM
concentration at 6 h (in vivo; Free tumor conc.): 55 nM
concentration at 24 h (in vivo; Free tumor conc.): 28 nM
concentration at 1 h (in vivo; Total Plasma conc.): 14900 nM
concentration at 2 h (in vivo; Total Plasma conc.): 6860 nM
concentration at 6 h (in vivo; Total Plasma conc.): 822 nM
concentration at 24 h (in vivo; Total Plasma conc.): 90 nM
concentration at 1 h (in vivo; Total tumor conc.): 4880 nM
concentration at 2 h (in vivo; Total tumor conc.): 3420 nM
concentration at 6 h (in vivo; Total tumor conc.): 1570 nM
concentration at 24 h (in vivo; Total tumor conc.): 796 nM
inhibition at 10 µM (alpha 2B (h)): 10%
